According to ChEMBL document CHEMBL1144963, “Polyacylated neohesperidosides from Geranium caespitosum: bacterial multidrug resistance pump inhibitors” (2003):

Assays:
Assay type in all cases: functional
Priestia megaterium [1] = experiment: Antimicrobial activity against Bacillus megaterium in combination with Ciprofloxacin and 10 ug/mL of compound 4 (alone MIC= 0.8 ug/mL)
Priestia megaterium [2] = experiment: Antimicrobial activity against Bacillus megaterium in combination with Norfloxacin and 10 ug/mL of compound 4 (alone MIC= 1 ug/mL)
Priestia megaterium [3] = experiment: Antimicrobial activity against Bacillus megaterium in combination with Rhein and 10 ug/mL of compound 4 (alone MIC= 4 ug/mL)
Bacillus subtilis [4] = experiment: Antimicrobial activity against Bacillus subtilis in combination with Berberine and 10 ug/mL of compound 4 (alone MIC= 500 ug/mL)
Bacillus subtilis [5] = experiment: Antimicrobial activity against Bacillus subtilis in combination with Ciprofloxacin and 10 ug/mL of compound 4 (alone MIC= 0.8 ug/mL)
Bacillus subtilis [6] = experiment: Antimicrobial activity against Bacillus subtilis in combination with Norfloxacin and 10 ug/mL of compound 4 (alone MIC= 1 ug/mL)
Bacillus subtilis [7] = experiment: Antimicrobial activity against Bacillus subtilis in combination with Rhein and 10 ug/mL of compound 4 (alone MIC= 16 ug/mL)
Staphylococcus aureus [8] = experiment: Antimicrobial activity against NorA Staphylococcus aureus in combination with Berberine and 10 ug/mL of compound 4 (alone MIC= 64 ug/mL)
Staphylococcus aureus [9] = experiment: Antimicrobial activity against NorA Staphylococcus aureus in combination with Ciprofloxacin and 10 ug/mL of compound 4 (alone MIC= 0.2 ug/mL)
Staphylococcus aureus [10] = experiment: Antimicrobial activity against NorA Staphylococcus aureus in combination with Norfloxacin and 10 ug/mL of compound 4 (alone MIC= 0.4 ug/mL)
Staphylococcus aureus [11] = experiment: Antimicrobial activity against NorA Staphylococcus aureus in combination with Rhein and 10 ug/mL of compound 4 (alone MIC= 4 ug/mL)
Staphylococcus aureus [12] = experiment: Antimicrobial activity against Staphylococcus aureus in combination with Berberine and 10 ug/mL of compound 4 (alone MIC= 500 ug/mL)
Staphylococcus aureus [13] = experiment: Antimicrobial activity against Staphylococcus aureus in combination with Ciprofloxacin and 10 ug/mL of compound 4 (alone MIC= 0.5 ug/mL)
Staphylococcus aureus [14] = experiment: Antimicrobial activity against Staphylococcus aureus in combination with Norfloxacin and 10 ug/mL of compound 4 (alone MIC= 1 ug/mL)
Staphylococcus aureus [15] = experiment: Antimicrobial activity against Staphylococcus aureus in combination with Rhein and 10 ug/mL of compound 4 (alone MIC= 4 ug/mL)
Priestia megaterium [16] = experiment: Antimicrobial activity against Bacillus megaterium in combination with Berberine and 10 ug/mL of compound 4 (alone MIC= 125 ug/mL)

- MIC (Priestia megaterium [1]): 0.1 µg/mL
- MIC (Priestia megaterium [2]): 0.2 µg/mL
- MIC (Priestia megaterium [3]): 1 µg/mL
- MIC (Bacillus subtilis [4]): 125 µg/mL
- MIC (Bacillus subtilis [5]): 0.1 µg/mL
- MIC (Bacillus subtilis [6]): 0.2 µg/mL
- MIC (Bacillus subtilis [7]): 4 µg/mL
- MIC (Staphylococcus aureus [8]): 1.56 µg/mL
- MIC (Staphylococcus aureus [9]): 0.1 µg/mL
- MIC (Staphylococcus aureus [10]): 0.1 µg/mL
- MIC (Staphylococcus aureus [11]): 1 µg/mL
- MIC (Staphylococcus aureus [12]): 3.12 µg/mL
- MIC (Staphylococcus aureus [13]): 0.1 µg/mL
- MIC (Staphylococcus aureus [14]): 0.2 µg/mL
- MIC (Staphylococcus aureus [15]): 1 µg/mL
- MIC (Priestia megaterium [16]): 6.25 µg/mL
SMILES: CCCCOC1OC(COC(=O)C(C)C)C(OC(=O)C(C)C)C(O)[C@H]1O[C@@H]1OC(C)C(OC(=O)C(C)C)C(OC(C)=O)C1OC(=O)CCCC (stereo partly specified)
